This is an account of results in article PMC3691600, “Conversion of fatty aldehydes into alk (a/e)nes by in vitro reconstituted cyanobacterial aldehyde-deformylating oxygenase with the cognate electron transfer system” (Biotechnology for Biofuels, 2013).

The assay deals with FNR (SynPcc7942_0978) (Synechococcus elongatus, UniProt Q31PL1). The assay is described as follows: UV/vis absorption spectrum of purified enzyme. Format: binding. The following applies: noncovalently bound; as purified; flavin identity inferred from spectrum and FNR homology.
Sequence of FNR (SynPcc7942_0978) (Q31PL1 1-403): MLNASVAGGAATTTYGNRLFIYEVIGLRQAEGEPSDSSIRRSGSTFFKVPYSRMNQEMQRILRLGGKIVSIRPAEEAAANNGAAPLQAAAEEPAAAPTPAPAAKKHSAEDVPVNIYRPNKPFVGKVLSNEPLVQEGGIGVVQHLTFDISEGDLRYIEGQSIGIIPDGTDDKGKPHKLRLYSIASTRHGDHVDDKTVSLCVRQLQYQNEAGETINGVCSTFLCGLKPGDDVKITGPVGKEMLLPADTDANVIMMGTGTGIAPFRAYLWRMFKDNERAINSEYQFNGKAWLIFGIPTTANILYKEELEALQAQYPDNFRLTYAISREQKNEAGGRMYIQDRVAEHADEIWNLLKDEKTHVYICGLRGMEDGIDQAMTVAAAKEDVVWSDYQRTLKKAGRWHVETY

Take `Cc1cc2nc3c(=O)[nH]c(=O)nc-3n(C[C@H](O)[C@H](O)[C@H](O)COP(=O)(O)OP(=O)(O)OC[C@H]3O[C@@H](n4cnc5c(N)ncnc54)[C@H](O)[C@@H]3O)c2cc1C` [FAD]: the “UV/vis absorption spectrum of purified enzyme” value is “demonstrating that FNR is certainly a flavoprotein”.
